In patent US20180127465A1 (priority 2015, published 2018):

Assays:
primary cortical neurons [1] = type: cell-based
primary cortical neurons [2] = type: cell-based; remark: listed apart in the source
primary cortical neurons [3] = type: cell-based; remark: listed apart in the source
[4] = test system: mouse middle cerebral artery occlusion (MCAO) stroke model; conditions: in vivo
[5] = test system: mouse middle cerebral artery occlusion (MCAO) stroke model; conditions: in vivo; remark: listed apart in the source
primary cortical neurons [6] = type: cell-based; remark: listed apart in the source

Row | Structure (SMILES) | neuronal cell death (LDH), in words (primary cortical neurons [1]) | relative neuronal survival (MTT), in words (primary cortical neurons [2]) | less LDH release (primary cortical neurons [3]) [%] | relative neuronal death (LDH), in words (primary cortical neurons [3]) | improvement of neurological score [4] [%] | Horizontal Activity [5] | No. of Movements [5] | Rest Time [5] [s] | Stereotypy Counts [5] | Total Distance [5] [CM] | Vertical Activity [5] | ROS production, in words (primary cortical neurons [6])
1 | C[C@@H](NC(=O)[C@@H](N)Cc1ccc(O)cc1)C(=O)NCC(=O)N[C@@H](Cc1ccccc1)C(=O)NNC(=O)[C@H](Cc1ccccc1)NC(=O)CNC(=O)[C@@H](C)NC(=O)[C@@H](N)Cc1ccc(O)cc1 [biphalin] | significantly decreased neuronal cell death | significantly improved relative neuronal survival | 18.4 | significantly decreased relative neuronal death | 25.5 | 760 ± 75 | 42 ± 6 | 240 ± 7 | 390 ± 46 | 650 ± 81 | 28 ± 3 | –
2 | O=C1CC[C@@]2(O)[C@H]3Cc4ccc(O)c5c4[C@@]2(CCN3CC2CC2)[C@H]1O5 [NTX, naltrexone] | No statistical significant difference | – | – | – | – | – | – | – | – | – | – | did not show significant decrease in ROS production
